# Values of other authors in PMC7465353, “Antioxidant Effects of PS5, a Peptidomimetic of Suppressor of Cytokine Signaling 1, in Experimental Atherosclerosis” (Antioxidants, 2020).
# Test system: VSMCs
substance,measurement,value
"KIR peptide: peptide encompassing residues 52–67, i.e., kinase inhibitory region (KIR) of SOCS1 (DTHFRTFRSHADYRRI; UniProt O15524 52-67, looked up, fragment)","VSMC migration, wound healing",significantly diminished the migration and proliferation
